≈ marks a conversion by molar mass, not a printed value.
Legend:
[1] = molecular target: Metabotropic glutamate receptor 5 (Homo sapiens, UniProt P41594); assay: Negative allosteric modulation of human recombinant mGluR5 expressed in HEK293 cells assessed as inhibition of glutamate-induced calcium mobilization preincubated for 2 mins followed glutamate addition measured by fluorescence assay; format: functional, cell-based
[2] = Metabolic stability in human hepatic microsomes assessed as parent compound remaining at 1 uM after 30 mins in presence of NADPH by LC-MS/MS analysis relative to control; format: ADME, Microsome; conditions: liver microsomes, read-out: Stability
[3] = Metabolic stability in rat hepatic microsomes assessed as parent compound remaining at 1 uM after 30 mins in presence of NADPH by LC-MS/MS analysis relative to control; format: ADME, Microsome; conditions: liver microsomes, read-out: Stability
[4] = Aqueous solubility of compound at pH 7.4; format: physicochemical; conditions: aqueous medium
Cytochrome P450 1A2 = molecular target: T1, Cytochrome P450 1A2 (Homo sapiens, UniProt P05177); assay: (§1) Inhibition of CYP1A2 in human liver microsomes using phenacetin as substrate after 10 mins by LC-MS/MS analysis; format: ADME
T1 sequence (P05177 whole entry): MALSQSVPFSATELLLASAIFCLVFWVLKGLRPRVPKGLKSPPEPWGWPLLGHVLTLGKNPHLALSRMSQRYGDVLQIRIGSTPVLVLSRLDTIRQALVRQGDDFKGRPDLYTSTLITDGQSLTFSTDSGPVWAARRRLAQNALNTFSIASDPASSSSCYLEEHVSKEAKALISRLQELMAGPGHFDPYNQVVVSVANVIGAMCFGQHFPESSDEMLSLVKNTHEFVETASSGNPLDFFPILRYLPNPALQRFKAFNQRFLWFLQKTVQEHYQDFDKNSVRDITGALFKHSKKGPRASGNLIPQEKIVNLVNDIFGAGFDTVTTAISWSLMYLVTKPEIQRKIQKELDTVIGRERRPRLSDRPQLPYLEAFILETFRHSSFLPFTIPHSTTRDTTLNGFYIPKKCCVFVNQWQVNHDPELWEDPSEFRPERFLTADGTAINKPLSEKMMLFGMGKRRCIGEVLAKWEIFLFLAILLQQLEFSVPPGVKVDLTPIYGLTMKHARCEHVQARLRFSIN

Cytochrome P450 2A6 = molecular target: T2, Cytochrome P450 2A6 (Homo sapiens, UniProt P11509); assay: (§2) Inhibition of CYP2A6 in human liver microsomes using coumarin as substrate after 10 mins by LC-MS/MS analysis; format: ADME
T2 sequence (P11509 whole entry): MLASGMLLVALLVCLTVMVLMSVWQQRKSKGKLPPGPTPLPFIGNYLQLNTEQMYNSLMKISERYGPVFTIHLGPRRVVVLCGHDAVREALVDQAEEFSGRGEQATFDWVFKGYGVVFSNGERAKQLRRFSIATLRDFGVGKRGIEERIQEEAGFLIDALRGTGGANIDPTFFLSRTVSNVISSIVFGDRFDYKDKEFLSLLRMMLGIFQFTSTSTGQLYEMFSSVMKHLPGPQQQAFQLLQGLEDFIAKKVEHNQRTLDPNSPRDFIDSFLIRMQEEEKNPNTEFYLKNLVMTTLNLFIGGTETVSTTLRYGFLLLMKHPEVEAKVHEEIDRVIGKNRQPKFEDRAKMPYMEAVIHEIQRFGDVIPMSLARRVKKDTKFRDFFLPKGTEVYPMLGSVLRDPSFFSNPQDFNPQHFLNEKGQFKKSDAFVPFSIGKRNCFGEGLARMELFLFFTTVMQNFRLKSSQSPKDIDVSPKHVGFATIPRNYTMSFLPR

Cytochrome P450 2C8 = molecular target: T3, Cytochrome P450 2C8 (Homo sapiens, UniProt P10632); assay: (§3) Inhibition of CYP2C8 in human liver microsomes using amodiaquine as substrate after 10 mins by LC-MS/MS analysis; format: ADME
T3 sequence (P10632 whole entry): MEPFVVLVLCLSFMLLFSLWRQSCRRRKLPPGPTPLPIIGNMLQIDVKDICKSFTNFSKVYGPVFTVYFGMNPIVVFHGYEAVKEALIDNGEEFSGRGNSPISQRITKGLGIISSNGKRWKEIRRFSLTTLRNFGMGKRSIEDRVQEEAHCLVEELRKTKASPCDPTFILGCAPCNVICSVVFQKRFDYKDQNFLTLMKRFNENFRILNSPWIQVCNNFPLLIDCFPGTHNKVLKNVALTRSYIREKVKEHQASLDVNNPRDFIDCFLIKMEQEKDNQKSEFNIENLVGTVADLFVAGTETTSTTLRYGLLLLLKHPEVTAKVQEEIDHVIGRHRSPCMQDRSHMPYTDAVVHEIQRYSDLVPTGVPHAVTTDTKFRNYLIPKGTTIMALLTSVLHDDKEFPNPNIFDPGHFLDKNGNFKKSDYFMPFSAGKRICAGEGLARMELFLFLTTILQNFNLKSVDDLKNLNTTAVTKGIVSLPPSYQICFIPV

Cytochrome P450 2C9 = Cytochrome P450 2C9 (Homo sapiens, UniProt P11712); assay: (§4) Inhibition of CYP2C9 in human liver microsomes using diclofenac as substrate after 10 mins by LC-MS/MS analysis; format: ADME
Cytochrome P450 2C9, sequence (P11712 whole entry): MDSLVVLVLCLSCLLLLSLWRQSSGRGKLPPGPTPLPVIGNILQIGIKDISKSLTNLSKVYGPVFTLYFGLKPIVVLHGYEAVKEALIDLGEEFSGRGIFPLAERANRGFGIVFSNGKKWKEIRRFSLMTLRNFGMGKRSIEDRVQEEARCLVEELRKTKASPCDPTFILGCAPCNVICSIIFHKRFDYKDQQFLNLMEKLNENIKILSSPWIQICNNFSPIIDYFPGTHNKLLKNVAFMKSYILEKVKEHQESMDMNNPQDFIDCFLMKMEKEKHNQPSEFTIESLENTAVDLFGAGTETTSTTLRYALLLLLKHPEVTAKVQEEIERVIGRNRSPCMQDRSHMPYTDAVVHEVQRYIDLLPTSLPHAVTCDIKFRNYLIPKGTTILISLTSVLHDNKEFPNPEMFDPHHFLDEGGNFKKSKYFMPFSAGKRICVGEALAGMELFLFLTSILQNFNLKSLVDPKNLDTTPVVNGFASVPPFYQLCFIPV

Cytochrome P450 2C19 = Cytochrome P450 2C19 (Homo sapiens, UniProt P33261); assay: (§5) Inhibition of CYP2C19 in human liver microsomes using (S)-mephenytoin as substrate after 10 mins by LC-MS/MS analysis; format: ADME
Cytochrome P450 2C19, sequence (P33261 whole entry): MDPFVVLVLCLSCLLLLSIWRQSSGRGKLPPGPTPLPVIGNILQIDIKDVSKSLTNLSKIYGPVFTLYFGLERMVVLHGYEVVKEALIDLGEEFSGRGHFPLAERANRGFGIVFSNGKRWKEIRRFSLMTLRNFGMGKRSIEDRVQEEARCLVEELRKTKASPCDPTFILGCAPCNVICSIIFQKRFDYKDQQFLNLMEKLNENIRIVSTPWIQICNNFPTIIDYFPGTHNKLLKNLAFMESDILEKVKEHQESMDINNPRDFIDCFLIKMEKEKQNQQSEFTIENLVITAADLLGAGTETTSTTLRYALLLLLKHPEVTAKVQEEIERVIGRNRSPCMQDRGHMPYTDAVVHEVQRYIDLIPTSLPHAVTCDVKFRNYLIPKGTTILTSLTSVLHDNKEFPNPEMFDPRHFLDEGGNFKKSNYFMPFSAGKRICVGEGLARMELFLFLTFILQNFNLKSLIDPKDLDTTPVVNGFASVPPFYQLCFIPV

Cytochrome P450 2D6 = Cytochrome P450 2D6 (Homo sapiens, UniProt P10635); assay: (§6) Inhibition of CYP2D6 in human liver microsomes using bufuralol as substrate after 10 mins by LC-MS/MS analysis; format: ADME
Cytochrome P450 2D6, sequence (P10635 whole entry): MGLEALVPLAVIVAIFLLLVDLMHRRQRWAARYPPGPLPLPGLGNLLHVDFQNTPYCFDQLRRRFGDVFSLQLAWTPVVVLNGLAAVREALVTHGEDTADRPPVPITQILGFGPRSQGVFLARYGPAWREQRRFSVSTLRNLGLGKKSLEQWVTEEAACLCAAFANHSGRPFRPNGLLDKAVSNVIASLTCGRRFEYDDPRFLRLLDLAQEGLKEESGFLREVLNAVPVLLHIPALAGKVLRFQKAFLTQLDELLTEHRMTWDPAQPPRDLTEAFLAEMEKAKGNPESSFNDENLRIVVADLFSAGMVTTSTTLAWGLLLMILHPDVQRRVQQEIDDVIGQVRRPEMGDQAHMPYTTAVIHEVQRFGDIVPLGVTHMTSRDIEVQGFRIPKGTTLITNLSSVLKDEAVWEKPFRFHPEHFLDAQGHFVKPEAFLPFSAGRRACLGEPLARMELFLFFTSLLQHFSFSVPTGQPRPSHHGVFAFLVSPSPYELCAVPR

Cytochrome P450 3A4 = Cytochrome P450 3A4 (Homo sapiens, UniProt P08684); assay: (§7) Inhibition of CYP3A4 in human liver microsomes using midazolam as substrate after 10 mins by LC-MS/MS analysis; format: ADME
Cytochrome P450 3A4, sequence (P08684 whole entry): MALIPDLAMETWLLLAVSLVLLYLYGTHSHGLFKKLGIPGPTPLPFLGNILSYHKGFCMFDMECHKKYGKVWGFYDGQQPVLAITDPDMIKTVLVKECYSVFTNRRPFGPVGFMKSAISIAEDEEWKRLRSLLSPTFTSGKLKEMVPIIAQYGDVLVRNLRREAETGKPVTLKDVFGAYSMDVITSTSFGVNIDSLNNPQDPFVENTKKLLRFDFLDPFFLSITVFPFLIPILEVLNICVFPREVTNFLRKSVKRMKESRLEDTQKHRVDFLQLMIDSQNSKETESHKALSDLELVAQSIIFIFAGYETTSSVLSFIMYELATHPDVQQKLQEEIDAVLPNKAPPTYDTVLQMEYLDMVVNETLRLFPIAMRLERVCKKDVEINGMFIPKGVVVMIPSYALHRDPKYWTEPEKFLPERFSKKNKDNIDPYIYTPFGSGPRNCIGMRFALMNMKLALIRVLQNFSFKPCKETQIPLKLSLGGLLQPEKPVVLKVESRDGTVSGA

[5] = […] of CYP450 in human liver microsomes as substrate after 10 mins by LC-MS/MS analysis; format: ADME
[6] = Permeability of the compound at pH 7.4 by PAMPA; format: physicochemical; conditions: read-out: permeability
Salmonella typhimurium = assay: Genotoxicity in Salmonella typhimurium by Ames test; format: toxicity; conditions: salmonella enterica subsp. enterica serovar typhimurium
[7] = Half life in monkey at 0.5 mg/kg, iv; format: ADME, organism-based, Macaca mulatta; conditions: rhesus monkey, in vivo
[8] = Half life in rat at 1 mg/kg, iv; format: ADME, organism-based; conditions: in vivo
[9] = Clearance in monkey at 0.5 mg/kg, iv after 24 hrs; format: ADME, organism-based, Macaca mulatta; conditions: rhesus monkey, in vivo
[10] = Clearance in rat at 1 mg/kg, iv after 24 hrs; format: ADME, organism-based; conditions: in vivo
[11] = Volume of distribution at steady state in monkey at 0.5 mg/kg, iv after 24 hrs; format: ADME, organism-based, Macaca mulatta; conditions: rhesus monkey, in vivo, read-out: Vdss
[12] = Volume of distribution at steady state in rat at 1 mg/kg, iv after 24 hrs; format: ADME, organism-based; conditions: in vivo, read-out: Vdss
[13] = AUC in rat at 10 mg/kg, po; format: ADME, organism-based; conditions: in vivo
[14] = AUC in monkey at 0.5 mg/kg, iv; format: ADME, organism-based, Macaca mulatta; conditions: rhesus monkey, in vivo
[15] = AUC in monkey at 10 mg/kg, po; format: ADME, organism-based, Macaca mulatta; conditions: rhesus monkey, in vivo
[16] = AUC in rat at 1 mg/kg, iv; format: ADME, organism-based; conditions: in vivo
[17] = Cmax in rat at 10 mg/kg, po; format: ADME, organism-based; set-up: dose 10 mg/kg, route oral; conditions: in vivo
[18] = Cmax in monkey at 10 mg/kg, po; format: ADME, organism-based, Macaca mulatta; set-up: dose 10 mg/kg, route oral; conditions: rhesus monkey, in vivo
Rattus norvegicus [19] = assay: Oral bioavailability in rat at 10 mg/kg; format: ADME, organism-based; conditions: in vivo
[20] = Oral bioavailability in monkey at 10 mg/kg; format: ADME, organism-based, Macaca mulatta; conditions: rhesus monkey, in vivo
Rattus norvegicus [21] = assay: Ex vivo receptor occupancy at mGluR5 in Sprague-Dawley rat brain po administered daily for 4 days in presence of [3H]-MPEPy by liquid scintillation counting method; format: functional, organism-based
Rattus norvegicus [22] = assay: Toxicity in rat at 100 mg/kg, po qd administered via gavage for 14 days; format: organism-based; conditions: in vivo, 336 h
CYP1A2 = molecular target: T4, CYP1A2 (Homo sapiens, UniProt P05177); assay: as §1; format: ADME; conditions: human, liver microsomes, probe phenacetin
T4 sequence (P05177 whole entry): T1 sequence (P05177 whole entry)

CYP2A6 = molecular target: T5, CYP2A6 (Homo sapiens, UniProt P11509); assay: as §2; format: ADME; conditions: human, liver microsomes, probe coumarin
T5 sequence (P11509 whole entry): T2 sequence (P11509 whole entry)

CYP2C8 = molecular target: T6, CYP2C8 (Homo sapiens, UniProt P10632); assay: as §3; format: ADME; conditions: human, liver microsomes, probe amodiaquine
T6 sequence (P10632 whole entry): T3 sequence (P10632 whole entry)

CYP2C9 = CYP2C9 (Homo sapiens, UniProt P11712); assay: as §4; format: ADME; conditions: human, liver microsomes, probe diclofenac
CYP2C9, sequence (P11712 whole entry): as the sequence (P11712 whole entry) above

CYP2C19 = CYP2C19 (Homo sapiens, UniProt P33261); assay: as §5; format: ADME; conditions: human, liver microsomes, probe (S)-mephenytoin
CYP2C19, sequence (P33261 whole entry): as the sequence (P33261 whole entry) above

CYP2D6 = CYP2D6 (Homo sapiens, UniProt P10635); assay: as §6; format: ADME; conditions: human, liver microsomes, probe bufuralol
CYP2D6, sequence (P10635 whole entry): as the sequence (P10635 whole entry) above

CYP3A4 = CYP3A4 (Homo sapiens, UniProt P08684); assay: as §7; format: ADME; conditions: human, liver microsomes, probe midazolam
CYP3A4, sequence (P08684 whole entry): as the sequence (P08684 whole entry) above

P-gp = assay: Substrate activity at P-gp (unknown origin) assessed as efflux ratio; format: ADME; conditions: human, not told

Metabotropic glutamate receptor 5, sequence (P41594 whole entry): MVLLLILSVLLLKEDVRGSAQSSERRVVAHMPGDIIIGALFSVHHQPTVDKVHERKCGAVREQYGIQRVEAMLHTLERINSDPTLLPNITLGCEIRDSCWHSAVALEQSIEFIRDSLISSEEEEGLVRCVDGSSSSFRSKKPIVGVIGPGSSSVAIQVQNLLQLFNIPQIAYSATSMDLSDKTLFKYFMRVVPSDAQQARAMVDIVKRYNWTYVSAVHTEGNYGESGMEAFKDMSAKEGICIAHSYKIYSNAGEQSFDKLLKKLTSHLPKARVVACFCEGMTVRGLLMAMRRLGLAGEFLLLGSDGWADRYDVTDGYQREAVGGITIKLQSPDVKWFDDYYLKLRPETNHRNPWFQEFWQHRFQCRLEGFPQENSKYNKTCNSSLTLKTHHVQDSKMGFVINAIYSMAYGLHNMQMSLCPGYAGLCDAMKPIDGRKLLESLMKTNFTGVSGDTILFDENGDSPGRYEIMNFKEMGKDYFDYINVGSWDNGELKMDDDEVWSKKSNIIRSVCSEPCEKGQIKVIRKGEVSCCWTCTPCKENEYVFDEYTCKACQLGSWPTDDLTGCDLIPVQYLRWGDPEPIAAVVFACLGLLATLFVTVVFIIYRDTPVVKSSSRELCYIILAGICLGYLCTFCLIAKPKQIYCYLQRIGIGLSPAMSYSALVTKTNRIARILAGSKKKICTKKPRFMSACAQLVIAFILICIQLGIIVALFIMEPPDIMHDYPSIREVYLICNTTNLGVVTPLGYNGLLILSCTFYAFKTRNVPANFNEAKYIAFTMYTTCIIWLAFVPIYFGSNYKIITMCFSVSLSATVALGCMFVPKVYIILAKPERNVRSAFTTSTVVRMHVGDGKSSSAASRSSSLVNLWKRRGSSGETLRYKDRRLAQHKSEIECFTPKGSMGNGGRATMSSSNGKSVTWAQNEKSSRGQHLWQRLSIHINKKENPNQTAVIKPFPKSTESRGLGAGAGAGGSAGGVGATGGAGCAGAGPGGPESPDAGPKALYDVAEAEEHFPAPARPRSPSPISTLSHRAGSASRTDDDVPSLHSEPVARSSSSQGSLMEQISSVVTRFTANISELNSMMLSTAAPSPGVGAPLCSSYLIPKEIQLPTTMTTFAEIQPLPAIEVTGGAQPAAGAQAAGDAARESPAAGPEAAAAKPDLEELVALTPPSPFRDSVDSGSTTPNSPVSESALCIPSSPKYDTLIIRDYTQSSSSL

SMILES: N#Cc1cc(F)cc(C(=O)N2CCc3oc(-c4ccc(F)cn4)nc3C2)c1
- IC50 [1]: 403 nM
- remaining at 0.5 h, 1 µM [2]: > 97%
- remaining at 0.5 h, 1 µM [3]: > 97%

SMILES: N#Cc1ccc(-c2nc3c(o2)CCN(C(=O)c2ccccc2)C3)nc1
- IC50 [1]: 237 nM

SMILES: COc1cccc(C(=O)N2CCc3oc(-c4ccc(F)cn4)nc3C2)c1
- IC50 [1]: 157 nM
- remaining at 0.5 h, 1 µM [2]: > 91%
- remaining at 0.5 h, 1 µM [3]: > 91%

SMILES: Cc1cc(Cl)cc(C(=O)N2CCc3oc(-c4ccc(F)cn4)nc3C2)c1
- IC50 [1]: 46 nM
- remaining at 0.5 h, 1 µM [2]: > 91%
- remaining at 0.5 h, 1 µM [3]: > 91%

SMILES: O=C(c1ccccc1F)N1CCc2oc(-c3ccc(F)cn3)nc2C1
- IC50 [1]: 58 nM
- remaining at 0.5 h, 1 µM [2]: > 91%
- remaining at 0.5 h, 1 µM [3]: > 91%

SMILES: O=C(c1cccc(Cl)c1)N1CCc2oc(-c3ccc(F)cn3)nc2C1
- IC50 [1]: 50 nM
- remaining at 0.5 h, 1 µM [2]: > 91%
- remaining at 0.5 h, 1 µM [3]: > 91%

SMILES: O=C(c1cccc(F)c1)N1CCc2oc(-c3ccc(F)cn3)nc2C1
- IC50 [1]: 63 nM
- remaining at 0.5 h, 1 µM [2]: 91 to 97%
- remaining at 0.5 h, 1 µM [3]: 91 to 97%
- solubility [4]: 23 µg/mL (≈ 67.4 µM)
- IC50 (Cytochrome P450 1A2): > 50000 nM
- IC50 (Cytochrome P450 2A6): > 50000 nM
- IC50 (Cytochrome P450 2C8): > 50000 nM
- IC50 (Cytochrome P450 2C9): > 50000 nM
- IC50 (Cytochrome P450 2C19): > 50000 nM
- IC50 (Cytochrome P450 2D6): > 50000 nM
- IC50 (Cytochrome P450 3A4): > 50000 nM
- Activity [5]: Not Active
- Papp [6]: 31.7 ×10⁻⁶ cm/s
- Activity (Salmonella typhimurium): Non-Toxic
- half-life [7]: 9.5 h
- half-life [8]: 2 h
- clearance [9]: 2.8 mL/min/kg
- clearance [10]: 10.8 mL/min/kg
- Vd [11]: 2.2 L/kg
- Vd [12]: 1.6 L/kg
- AUC [13]: 26100 ng·h/mL
- AUC [14]: 3050 ng·h/mL
- AUC [15]: 69200 ng·h/mL
- AUC [16]: 1550 ng·h/mL
- Cmax [17]: 2070 ng/mL
- Cmax [18]: 4060 ng/mL
- F (Rattus norvegicus [19]): 168%
- bioavailability [20]: 114%
- Activity (Rattus norvegicus [21]): Dose-dependent effect
- Activity (Rattus norvegicus [22]): Non-Toxic

SMILES: Cc1ccc(-c2nc3c(o2)CCN(C(=O)c2ccccc2)C3)nc1
- IC50 [1]: 177 nM

SMILES: O=C(c1ccccc1)N1CCc2oc(-c3ccc(Br)cn3)nc2C1
- IC50 [1]: 174 nM

SMILES: O=C(c1cc(F)cc(Cl)c1)N1CCn2nc(-c3ccc(F)cn3)cc2C1
- remaining at 0.5 h, 1 µM [2]: > 97%
- remaining at 0.5 h, 1 µM [3]: > 97%
- solubility [4]: 4 µg/mL (≈ 10.7 µM)
- IC50 at 10 min (CYP1A2): > 40000 nM
- IC50 at 10 min (CYP2A6): > 40000 nM
- IC50 at 10 min (CYP2C8): > 40000 nM
- IC50 at 10 min (CYP2C9): > 40000 nM
- IC50 at 10 min (CYP2C19): > 40000 nM
- IC50 at 10 min (CYP2D6): > 40000 nM
- IC50 at 10 min (CYP3A4): > 40000 nM
- Activity [5]: Not Active
- efflux ratio (P-gp): 1.2

SMILES: O=C(c1ccc(F)cc1)N1CCc2oc(-c3ccc(F)cn3)nc2C1
- IC50 [1]: 90 nM
- remaining at 0.5 h, 1 µM [2]: > 91%
- remaining at 0.5 h, 1 µM [3]: > 91%

SMILES: O=C(c1ccccc1)N1CCc2oc(-c3ccc(Cl)cn3)nc2C1
- IC50 [1]: 32 nM
